Assay results taken from US8440683B2, “Pharmaceutical preparation for treating demyelinating diseases of the nervous system; preparation promoting restoration of the myelin sheath of nerve fibers; and a method for treating demyelinating diseases of the nervous system” (priority 2007, dated 2013).

Columns and labels:
[1] = clinical scale; abscesses, hematomas, elevated arterial pressure, allergic reactions etc.; cited from earlier work
[2] = treatment of amyotrophic lateral sclerosis patients; assay type: in vivo
From the text: Another patient had their disordered breathing, which could not be corrected by other preparations, restored.

Schwann cells = test: stimulation of Schwann cell growth and myelin formation; settings: inventors' experiments
[3] = treatment of syringomyelia patients; assay type: in vivo
Experimental: The preparation was administered to 37 patients suffering from syringomyelia.
Along with the administration of the preparation, all the patients were directed to take massage sessions, physiotherapy exercises, spine ionization by potassium iodide, and vitamins B1 and B12. […] Special attention must be drawn to the fact that the malfunctions are corrected in patients showing early signs of syringobulbia.

[4] = tested on: connective tissue development; settings: damage to a nerve; U.S.S.R. Patent No. 1,713,151; cited from earlier work
[5] = treatment of myelopathy patients with lateral amyotrophic syndrome; assay type: in vivo; settings: intramuscular 2.0 ml of 0.25% solution twice a day, two to three weeks
Experimental: Administration of stephaglabrin sulfate intramuscularly in 2.0 ml doses of a 0.25% solution twice a day for two to three weeks in treating myelopathy patients showing elements of a lateral amyotrophyic syndrome.

[6] = tested on: true and false cholinesterase; settings: cited from earlier work
[7] = treatment of patients with cerebrospinal form of disseminated sclerosis; assay type: in vivo; settings: disseminated sclerosis with tetraparesis, cerebello-ataxic syndrome, pelvic disorders
From the text: The preparation was effective in patients suffering from the cerebrospinal form of disseminated sclerosis combined with tetraparesis, cerebello-ataxic syndrome, and pelvic disorders.

smooth muscles = settings: cited from earlier work
degenerating nerves = test: myelination of degenerating nerves in rats; assay type: in vivo
From the text: By comparison, myelination of nerve fibers proceeded slowly in control animals that were not treated with stephaglabrin sulfate and was not completed even within 100 to 120 days.

[8] = in vivo; cited from earlier work
[9] = in vivo; cited from earlier work; remark: listed apart in the source
[10] = in water and aqueous alcohol; cited from earlier work

## glatiramer acetate [Copaxone-Teva]
[1]
  side reactions on clinical use: Numerous side reactions

## stephaglabrin sulfate
[2]; 14 patients with severe amyotrophic lateral sclerosis
  therapeutic effect: positive therapeutic effect
[2]; another patient, not corrected by other preparations
  disordered breathing: restored
[2]; of 14 patients
  patients with strength build-up in the extremities and reduced bulbar disorders: 12 patients
[2]; one patient with aphonia and dysphagia, after 10 days of 2 ml twice a day
  swallowing: significant improvement in swallowing
Schwann cells
  growth of Schwann cells and subsequent myelin formation: stimulate the growth of Schwann cells
[3]; from the start of treatment, 2 ml twice a day plus massage, physiotherapy, vitamins
  time to lowered levels of sensing disorders: within two to three weeks
[3]; of 37 syringomyelia patients
  patients with a positive effect: 28 patients
[3]; some patients
  onset of decline of sympathalgic pain intensity: 10th to 12th day
[4]
  activity in relation to connective tissue development, preventing formation of scars: specific inhibiting activity
[5]
  clinical effects observed: disappearance of fibrillations, reduction in amyotrophy intensity and polykinetics of proprioceptive reflexes, and growth of muscle power in the arms
[6]
  activity of true and false cholinesterase: suppresses the activity
[7]
  clinical effectiveness: effective
Smooth muscles
  effect on smooth muscles: tonic effect
Degenerating nerves; 0.1 to 1.0 mg/kg, versus untreated animals
  start of myelination of degenerating nerves: stimulates an early start of myelination
Degenerating nerves; electrophysiological studies
  speed of impulse passage in the nerve: complete recovery
[8]
  arterial pressure: lowers arterial pressure
[9]
  toxicity: low toxicity
[10]
  solubility: well soluble
